Patent publication US4902720A (priority 1988, dated 1990)
Like-named read-outs stand apart in the source and are kept apart here.

Experiments:
[1] = test system: HSV-1 (McKrae strain); settings: 20 mg/ml
Method: In experiment 1K, cultures were infected with the McKrae strain of HSV-1 at a high multiplicity of infection. […] At designated times, the cultures were harvested. The supernatant fluid and the cells were kept separate to assay for viruses released in the supernatant fluid and also that present in the cells. Both supernatant fluid and the cells were frozen immediately at -85° C. These samples were then assayed for infectious particles on susceptible cells.

[2] = test system: HSV-1 (F strain); settings: for % plaque inhibition B: Exp. 1D
[3] = test system: herpes simplex virus (HSV types 1 and 2)
[4] = test system: HSV-1 (McKrae strain)

CC[N+](CC)(CC)CC.[Cl-] [TEAC, tetraethylammonium chloride]
virus yield, supernatant ([1]; 20 hours P.I., dilution 10^-2, control 10): 0 PFU/m | virus yield, cell ([1]; 20 hours P.I., dilution 10^-2, control W.O. (wiped out)): 0 PFU/m | virus yield, supernatant ([1]; 20 hours P.I., dilution 10^-3, control 0): 0 PFU/m | virus yield, cell ([1]; 20 hours P.I., undiluted (Und.), control W.O. (wiped out)): 42 PFU/m | virus yield, supernatant ([1]; 24 hours P.I., dilution 10^-1, control 107): 0 PFU/m | virus yield, cell ([1]; 24 hours P.I., dilution 10^-1, control W.O. (wiped out)): 32 PFU/m | virus yield, supernatant ([1]; 24 hours P.I., dilution 10^-2, control 18): 0 PFU/m | virus yield, cell ([1]; 24 hours P.I., dilution 10^-2, control W.O. (wiped out)): 10 PFU/m | virus yield, supernatant ([1]; 24 hours P.I., dilution 10^-3, control 2): 0 PFU/m | virus yield, cell ([1]; 24 hours P.I., undiluted (Und.), control W.O. (wiped out)): 58 PFU/m | virus yield, supernatant ([1]; 28 hours P.I., dilution 10^-1, control 190): 0 PFU/m | virus yield, cell ([1]; 28 hours P.I., dilution 10^-1, control W.O.): TMTC | virus yield, supernatant ([1]; 28 hours P.I., dilution 10^-2, control 58): 0 PFU/m | virus yield, cell ([1]; 28 hours P.I., dilution 10^-2, control W.O. (wiped out)): 15 PFU/m | virus yield, supernatant ([1]; 28 hours P.I., dilution 10^-3, control 7): 0 PFU/m | virus yield, cell ([1]; 28 hours P.I., undiluted (Und.), control W.O.): W.O. | % plaque inhibition ([2]; Exp. 1C, 3 hours pre-incubation, 2.5 mg/culture): 10% | % plaque inhibition ([2]; Exp. 1C, 3 hours pre-incubation, 5.0 mg/culture): 22% | % plaque inhibition ([2]; Exp. 1C, 3 hours pre-incubation, 10.0 mg/culture): 71% | % plaque inhibition B ([2]; 3 hours pre-incubation, 12.5 mg/culture): 80% | % plaque inhibition B ([2]; 3 hours pre-incubation, 25.0 mg/culture): 79% | % plaque inhibition B ([2]; 3 hours pre-incubation, 50.0 mg/culture): 82% | % plaque inhibition B ([2]; 3 hours pre-incubation, 100.0 mg/culture): 79% | % plaque inhibition ([2]; Exp. 1E, 2 hours pre-incubation, 6.25 mg/culture): 0% | % plaque inhibition ([2]; Exp. 1E, 2 hours pre-incubation, 12.50 mg/culture): 18% | % plaque inhibition ([2]; Exp. 1E, 2 hours pre-incubation, 25.00 mg/culture): 17% | % plaque inhibition ([2]; Exp. 1E, 2 hours pre-incubation, 50.00 mg/culture): 24% | % plaque inhibition ([2]; Exp. 1E, 2 hours pre-incubation, 100.00 mg/culture): 68% | % plaque inhibition ([2]; Exp. 1E, 4 hours pre-incubation, 6.25 mg/culture): less than 20% | % plaque inhibition ([2]; Exp. 1E, 4 hours pre-incubation, 12.50 mg/culture): less than 20% | % plaque inhibition ([2]; Exp. 1E, 4 hours pre-incubation, 25.00 mg/culture): 37.5% | % plaque inhibition ([2]; Exp. 1E, 4 hours pre-incubation, 50.00 mg/culture): 63% | appearance of cell layer ([2]; Exp. 1E, 4 hours pre-incubation, 100.00 mg/culture): thin | % plaque inhibition ([2]; Exp. 1E, 4 hours pre-incubation, 100.00 mg/culture, cell layer thin): 100% | % plaque inhibition ([2]; Exp. 1E, 7 hours pre-incubation, 6.25 mg/culture): 50% | % plaque inhibition ([2]; Exp. 1E, 7 hours pre-incubation, 12.50 mg/culture): 76% | % plaque inhibition ([2]; Exp. 1E, 7 hours pre-incubation, 25.00 mg/culture): 96.5% | % plaque inhibition ([2]; Exp. 1E, 7 hours pre-incubation, 50.00 mg/culture): 95.7% | appearance of cell layer ([2]; Exp. 1E, 7 hours pre-incubation, 100.00 mg/culture): thin | % plaque inhibition ([2]; Exp. 1E, 7 hours pre-incubation, 100.00 mg/culture, cell layer thin): 100% | attacks ([3]; Patient B, about a month after report on fourth infusion): no more attacks | recurrences ([3]; Patient B, after third infusion): recurrences were not eliminated | resolution of oral lesions ([3]; Patient B, first infusion 3.7 cc (5 mg/kg)): resolution occurring in a shorter than usual time | value of last treatment ([3]; Patient B, fourth infusion 4.8 cc): of no value | aura and expected labial lesion ([3]; Patient B, second infusion 3.7 cc, following day): absence of an aura and no occurrence of the expected lesion except for a very small lesion at the corner of the mouth | time to disappearance of penile lesion ([3]; Patient B, third infusion 4.5 cc): 2 to 3 days | long term outcome ([3]; Patient C, five months and ten months after initial treatment): no further problems | infection ([3]; Patient I, first infusion 4.7 cc, four to five days later): they were all clear | time to clearing of lesion ([3]; Patient I, second infusion 4.75 cc (5.5 mg/kg)): 3 days | nocturnal headaches ([3]; Patient I, three months after second infusion): no further nocturnal headaches | number of cells containing intranuclear dense bodies vs control ([4]; 6 hours post infection): no striking difference | No. of cells with internuclear dense bodies ([4]; TEAC treated, 24 hours P.I., 300 cells examined, control 0 of 50): 12 | No. of cells with virus particles ([4]; TEAC treated, 24 hours P.I., 300 cells examined, control 50 of 50): 8 | Total % ([4]; TEAC treated, 24 hours P.I., control 100%): 6% | size of nucleocapsids ([4]; TEAC-treated cells, 24 hours post infection): about 99.6 A
